Patent publication US9546157B2, “Asymmetric piperidinyl-substituted ureas as medicines” (Helsinn Healthcare SA, priority 2014, dated 2017)
Entries after “also recorded” stand apart in the source; their conditions may differ.

Tested on: Marchigian Sardinian alcohol-preferring (msP) rats
Experiment: Operant ethanol self-administration in msP rats
Assay type: in vivo, rat
Details: for operant responding for alcohol (10% ethanol self-administration), overall: oral 1 h before 30-min session, all doses tested (H0847 1, 3; H0816 3, 10; H0900 and H0860 3, 30 mg/kg)
Procedure: Training continued until stable baseline of alcohol responding was achieved. At this point, before initiation of treatments, rats were trained to gavage administration procedures for three consecutive days (pre-treatment phase) during which they received drug vehicle. At this point animals were tested for the effect of ghrelin antagonists on 10% (v/v) ethanol self-administration. Using a within-subject Latin square design, the first group of msP rats (N=12) was tested for the effect of H0847 (0.0, 1.0 and 3.0 mg/kg), while the second (N=12) was treated with H0816 (0.0, 3.0 and 10.0 mg/kg).
Once the experiment was finished, animals were left in their home cages for several days, in order to wash out the drugs. Then, the same rats were employed to test the remaining ghrelin antagonists compounds H0900 (0.0, 3.0 and 30.0 mg/kg) and H0860 (0.0, 3.0 and 30.0 mg/kg). Once a stable self-administration baseline was reached, treatments begun according to the same experimental procedures described for the previous drugs tested.
All the drugs (or vehicles) were administered orally 1 hour before the beginning of the operant session.
Male genetically selected alcohol-preferring Marchigian Sardinian (msP) rats were used (N=24). At the time of the experiments their body weight ranged between 350 and 400 g. They were housed 4 per cages in a room with a reverse 12:12 h light/dark cycle (lights off at 9:30 a.m.), temperature of 20-22° C. and humidity of 45-55%. Rats were offered free access to tap water and food pellets (4RF18, Mucedola, Settimo Milanese, Italy). All the procedures were conducted in adherence with the European Community Council Directive for Care and Use of Laboratory Animals and the National Institutes of Health Guide for the Care and Use of Laboratory Animals.
75 mg of each H0900 and H0860 were accurately weighed and suspended in 10 ml of 0.5% carboxymethyl cellulose sodium salt solution (CMC, Sigma-Aldrich Cat. C4888, lot 120M0216V). The lower dose solution was prepared by dilution of 30 mg/ml suspension with 0.5% CMC solution.
37.5 mg of H0816 were accurately weighed and suspended in 15 ml of 0.5% carboxymethyl cellulose sodium salt solution (CMC, Sigma-Aldrich Cat. C4888, lot 120M0216V). The lower dose solution was prepared by dilution of mg/ml suspension with 0.5% CMC solution.
11.25 mg of H0847 were accurately weighed and suspended in 15 ml of 0.5% carboxymethyl cellulose sodium salt solution (CMC, Sigma-Aldrich Cat. C4888, lot 120M0216V). The lower dose solution was prepared by dilution of mg/ml suspension with 0.5% CMC solution.
Suspensions were prepared freshly on test day. Vehicle was composed of a solution of 0.5% carboxymethyl cellulose sodium salt and was prepared by dissolving 1 g of CMC in 200 ml of distilled water. Vehicle and drugs were administered by gavage in a volume of 4 ml/kg of body weight 1 hour before the access to 10% alcohol solution. 10% (v/v) ethanol solution was prepared every two days by diluting 95% (v/v) ethanol solution (F.L. CARSETTI s.n.c-CAMERINO) in drinkable water.
The self-administration stations consisted of operant conditioning chambers (Med Associate, Inc) enclosed in sound-attenuating, ventilated environmental cubicles. Each chamber was equipped with a drinking reservoir (volume capacity: […]) positioned 4 cm above the grid floor in the centre of the front panel of the chamber, two retractable levers located 3 cm (one to the right and the other to the left) of the drinking receptacle and a white cue light located 6 cm above the lever. […] An IBM-compatible computer controlled the delivery of fluids (activation of syringe pump), presentation of visual stimuli and recording of the behavioral data.
Using operant self-administration chambers (Med Associates), msP rats were trained to lever press for 10% alcohol (v/v) until stable baseline of responding were achieved. 16 self-administration training sessions were carried out to train the animals. […]

[1] = 3 mg/kg oral 1 h before session
[2] = 30 mg/kg oral 1 h before session

## C[C@H](NC(=O)N(C)C1CCN(C)CC1)c1ccc(-c2cnccn2)c(Cl)c1Cl [Compound H0816, (S)-3-(1-(2,3-dichloro-4-(pyrazin-2-yl)phenyl)ethyl)-1-methyl-1-(1-methylpiperidin-4-yl)urea]
  operant responding for alcohol (10% ethanol self-administration), overall: had no effect on operant responding for alcohol; also recorded: had no effect on ethanol responses

## C[C@H](NC(=O)N(C)C1CCN(C)CC1)c1ccc(-c2cncc(F)n2)c(Cl)c1Cl [Compound H0847, (S)-3-(1-(2,3-dichloro-4-(6-fluoropyrazin-2-yl)phenyl)ethyl)-1-methyl-1-(1-methylpiperidin-4-yl)urea]
  operant responding for alcohol (10% ethanol self-administration), overall: had no effect on operant responding for alcohol; also recorded: had no effect on ethanol responses

## CC[C@H](NC(=O)N(C)C1CCN(C)CC1)c1ccc(-c2cnccn2)c(Cl)c1Cl [Compound H0860, (S)-3-(1-(2,3-dichloro-4-(pyrazin-2-yl)phenyl)propyl)-1-methyl-1-(1-methylpiperidin-4-yl)urea]
[1]
  alcohol self-administration, post hoc: only the higher dose (30 mg/kg) reduced ethanol self-administration
[2]
  alcohol self-administration, post hoc: significant reduction of alcohol self-administration
  operant responding for alcohol (10% ethanol self-administration), overall: significantly reduced operant responding for alcohol; also recorded: statistically significant decrease in ethanol self-administration

## CN1CCC(N(C)C(=O)N[C@H](c2ccc(-c3cnccn3)c(Cl)c2Cl)C(F)(F)F)CC1 [Compound H0900, (R)-3-(1-(2,3-dichloro-4-(pyrazin-2-yl)phenyl)-2,2,2-trifluoroethyl)-1-methyl-1-(1-methylpiperidin-4-yl)urea]
[1]
  alcohol self-administration, post hoc: significant reduction of alcohol self-administration
[2]
  alcohol self-administration, post hoc: significant reduction of alcohol self-administration
  operant responding for alcohol (10% ethanol self-administration), overall: significantly reduced operant responding for alcohol; also recorded: statistically significant decrease in ethanol self-administration
